Patent publication US5043353A, “A80789 polyether antibiotic” (Eli Lilly and Company, priority 1989, dated 1991)
In brackets after ≈: the same amount, converted by molar mass. Positions of bridges follow the written chain, without caps; N, C: chain ends. Non-standard residues stand in square brackets, D forms with d. Residues, ends and D or L forms follow the SMILES beside them. *: point of attachment. Ileψ(thiazoline)Cys = CC[C@H](C)[C@H](N)C1=N[C@H](C(=O)*)CS1; dOrn = NCCC[C@@H](N)C(=O)O

Columns and labels:
adult housefly = experiment: Insecticidal activity; assay type: in vivo
Description: The A80789 compounds are also useful as insecticides. For example, A80789 is active against adult housefly at levels as low as 100 ppm.

[1] = tested on: Streptococcus pyogenes C203; experiment: Standard agar-dilution assay, MIC; assay type: cell-based; conditions: 24-hour incubation
Description: (§1) The A80789 compounds have antibacterial and anticoccidial activity. A80789 compounds are especially active against anaerobic bacteria. The minimal inhibitory concentrations (MIC's) at which A80789 inhibits various bacteria, as determined by standard agar-dilution assays, are summarized in Tables III and IV. End points were read after 24-hour incubation.

[2] = tested on: Staphylococcus aureus X400; experiment: Standard agar-dilution assay, MIC; assay type: cell-based; conditions: 24-hour incubation
Description: as §1

[3] = tested on: Streptococcus pneumoniae Park 1; experiment: Standard agar-dilution assay, MIC; assay type: cell-based; conditions: PARK1, 24-hour incubation
Description: as §1

Escherichia coli EC14 = experiment: Standard agar-dilution assay, MIC; assay type: cell-based; conditions: 24-hour incubation
Description: as §1

[4] = tested on: Streptococcus faecalis 2041; experiment: Standard agar-dilution assay, MIC; assay type: cell-based; conditions: 24-hour incubation, reclassified as Enterococcus faecalis 2041
Description: as §1

Salmonella sp = experiment: Standard agar-dilution assay, MIC; assay type: cell-based; conditions: 24-hour incubation
Description: as §1

[5] = tested on: Haemophilus influenzae C.L.; experiment: Standard agar-dilution assay, MIC; assay type: cell-based; conditions: 24-hour incubation
Description: as §1

Klebsiella sp. = experiment: Standard agar-dilution assay, MIC; assay type: cell-based; conditions: 24-hour incubation
Description: as §1

[6] = tested on: Pseudomonas aeruginosa X528; experiment: Standard agar-dilution assay, MIC; assay type: cell-based; conditions: 24-hour incubation
Description: as §1

[7] = tested on: Staphylococcus aureus V41; experiment: Standard agar-dilution assay, MIC; assay type: cell-based; conditions: 24-hour incubation
Description: as §1

[8] = tested on: Streptococcus faecium X66; experiment: Standard agar-dilution assay, MIC; assay type: cell-based; conditions: 24-hour incubation, reclassified as Enterococcus faecium X66
Description: as §1

Serratia marcescens X99 = experiment: Standard agar-dilution assay, MIC; assay type: cell-based; conditions: 24-hour incubation
Description: as §1

[9] = tested on: Pseudomonas aeruginosa PS72; experiment: Standard agar-dilution assay, MIC; assay type: cell-based; conditions: 24-hour incubation
Description: as §1

Proteus sp. = experiment: Standard agar-dilution assay, MIC; assay type: cell-based; conditions: 24-hour incubation
Description: as §1

[10] = tested on: Pseudomonas aeruginosa X239; experiment: Standard agar-dilution assay, MIC; assay type: cell-based; conditions: 24-hour incubation
Description: as §1

Escherichia coli TEM = experiment: Standard agar-dilution assay, MIC; assay type: cell-based; conditions: 24-hour incubation
Description: as §1

Escherichia coli N10 = experiment: Standard agar-dilution assay, MIC; assay type: cell-based; conditions: 24-hour incubation
Description: as §1

[11] = tested on: Enterobacter aerogenes C32; experiment: Standard agar-dilution assay, MIC; assay type: cell-based; conditions: Klebsiella aerogenes, 24-hour incubation
Description: as §1

[12] = tested on: Enterobacter aerogenes EB17; experiment: Standard agar-dilution assay, MIC; assay type: cell-based; conditions: Klebsiella aerogenes, 24-hour incubation
Description: as §1

[13] = tested on: Staphylococcus epidermidis 222; experiment: Standard agar-dilution assay, MIC; assay type: cell-based; conditions: 24-hour incubation
Description: as §1

[14] = tested on: Staphylococcus epidermidis Epi 1; experiment: Standard agar-dilution assay, MIC; assay type: cell-based; conditions: EPI1, 24-hour incubation
Description: as §1

Shigella sonnei = experiment: Standard agar-dilution assay, MIC; assay type: cell-based; conditions: 24-hour incubation
Description: as §1

[15] = tested on: Haemophilus influenzae 76; experiment: Standard agar-dilution assay, MIC; assay type: cell-based; conditions: 24-hour incubation
Description: as §1

[16] = tested on: Staphylococcus aureus X1.1; experiment: Standard agar-dilution assay, MIC; assay type: cell-based; conditions: 24-hour incubation
Description: as §1

[17] = tested on: Pseudomonas aeruginosa PS18; experiment: Standard agar-dilution assay, MIC; assay type: cell-based; conditions: 24-hour incubation
Description: as §1

[18] = tested on: Staphylococcus aureus S13E; experiment: Standard agar-dilution assay, MIC; assay type: cell-based; conditions: 24-hour incubation
Description: as §1

Rhino viruses = experiment: microbe, parasite or virus in culture; assay type: cell-based; conditions: tissue-culture tests; read-out: level at which active
[19] = tested on: Peptococcus asaccharolyticus 1302; experiment: Standard agar-dilution assay, MIC (anaerobic bacteria); assay type: cell-based; conditions: Peptoniphilus asaccharolyticus, 24-hour incubation
Description: as §1

[20] = tested on: Peptostreptococcus intermedius 1264; experiment: as above; assay type: cell-based; conditions: 24-hour incubation
Description: as §1

[21] = tested on: Bacteroides fragilis 1877; experiment: as above; assay type: cell-based; conditions: 24-hour incubation
Description: as §1

Bacteroides fragilis 111 = experiment: as above; assay type: cell-based; conditions: 24-hour incubation
Description: as §1

Peptococcus prevoti 1281 = experiment: as above; assay type: cell-based; conditions: 24-hour incubation
Description: as §1

[22] = tested on: Fusobacterium symbiosum 1470; experiment: as above; assay type: cell-based; conditions: 24-hour incubation
Description: as §1

[23] = tested on: Clostridium difficile 2994; experiment: as above; assay type: cell-based; conditions: Clostridioides difficile, 24-hour incubation
Description: as §1

[24] = tested on: Bacteroides melaninogenicus 2736; experiment: as above; assay type: cell-based; conditions: 24-hour incubation
Description: as §1

[25] = tested on: Bacteroides melaninogenicus 1856/28; experiment: as above; assay type: cell-based; conditions: Prevotella intermedia, 24-hour incubation
Description: as §1

[26] = tested on: Eubacterium aerofaciens 1235; experiment: as above; assay type: cell-based; conditions: Collinsella aerofaciens, 24-hour incubation
Description: as §1

[27] = tested on: Bacteroides thetaiotaomicron 1438; experiment: as above; assay type: cell-based; conditions: 24-hour incubation
Description: as §1

[28] = tested on: Bacteroides vulgatis 1211; experiment: as above; assay type: cell-based; conditions: 24-hour incubation
Description: as §1

[29] = tested on: Propionibacterium acnes 79; experiment: as above; assay type: cell-based; conditions: Cutibacterium acnes, 24-hour incubation
Description: as §1

[30] = tested on: Bacteroides corredens 1874; experiment: as above; assay type: cell-based; conditions: 24-hour incubation
Description: as §1

[31] = tested on: Clostridium septicum 1128; experiment: as above; assay type: cell-based; conditions: 24-hour incubation
Description: as §1

[32] = tested on: Fusobacterium necrophorum 6054A; experiment: as above; assay type: cell-based; conditions: 24-hour incubation
Description: as §1

[33] = tested on: Peptostreptococcus anaerobius 1428; experiment: as above; assay type: cell-based; conditions: 24-hour incubation
Description: as §1

[34] = tested on: Bacteroides fragilis 1936B; experiment: as above; assay type: cell-based; conditions: 24-hour incubation
Description: as §1

HSV II = experiment: microbe, parasite or virus in culture; assay type: cell-based, Herpes (HSV II); conditions: tissue-culture tests; read-out: level at which active
Solubility = assay type: physicochemical; conditions: free acid form
Eimeria acervulina = experiment: Feeding experiments in infected chicks; assay type: in vivo; conditions: in the feed of young chickens; chicks infected with Eimeria acervulina
HSV I = experiment: microbe, parasite or virus in culture; assay type: cell-based, Herpes (HSV I); conditions: read-out: level at which active
Pseudorabies virus = experiment: microbe, parasite or virus in culture; assay type: cell-based; conditions: Suid alphaherpesvirus 1, read-out: level at which active
Great Lakes influenza = experiment: microbe, parasite or virus in culture; assay type: cell-based; conditions: read-out: level at which active
[35] = tested on: Clostridium perfringens 81; experiment: microbe, parasite or virus in culture; assay type: cell-based; conditions: Clostridium perfringens, 81, 24 h
Vaccina = experiment: microbe, parasite or virus in culture; assay type: cell-based; conditions: tissue-culture tests; read-out: level at which active
Para influenza = experiment: microbe, parasite or virus in culture; assay type: cell-based; conditions: read-out: level at which active
Culture A80789 = experiment: Antibiotic sensitivity disc test on the producing culture; assay type: cell-based, Streptomyces hygroscopicus; conditions: ISP No. 2 agar
Description: Resistance to antibiotics was measured by padding antibiotic sensitivity discs onto the surface of seeded ISP No. 2 agar plates. Resistance was scored as (+) when no zone of inhibition was observed and as (-) when a zone of inhibition was observed.

COC1CCC(OC2C(C)C3(OC(CC4OC(O)(C(C)C(=O)O)C(C)C(OC)C4C)CC(OC)C3C)OC2(C)C2CCC(C3CCC(C4OC(C)(O)C(C)CC4C)O3)O2)OC1C (stereo not shown) [A80789]
level (as low as) at which active (adult housefly): 100 ppm | MIC [1]: 0.03 µg/mL (≈ 0.0339 µM) | MIC [2]: 0.25 µg/mL (≈ 0.282 µM) | MIC [3]: 0.03 µg/mL (≈ 0.0339 µM) | MIC (Escherichia coli EC14): > 128 µg/mL | MIC [4]: > 128 µg/mL | MIC (Salmonella sp): > 128 µg/mL | MIC [5]: > 128 µg/mL | MIC (Klebsiella sp.): > 128 µg/mL | MIC [6]: > 128 µg/mL | MIC [7]: 0.25 µg/mL (≈ 0.282 µM) | MIC [8]: > 128 µg/mL | MIC (Serratia marcescens X99): > 128 µg/mL | MIC [9]: > 128 µg/mL | MIC (Proteus sp.): > 128 µg/mL | MIC [10]: > 128 µg/mL | MIC (Escherichia coli TEM): > 128 µg/mL | MIC (Escherichia coli N10): > 128 µg/mL | MIC [11]: > 128 µg/mL | MIC [12]: > 128 µg/mL | MIC [13]: 0.125 µg/mL (≈ 0.141 µM) | MIC [14]: 0.25 µg/mL (≈ 0.282 µM) | MIC (Shigella sonnei): > 128 µg/mL | MIC [15]: > 128 µg/mL | MIC [16]: 0.25 µg/mL (≈ 0.282 µM) | MIC [17]: > 128 µg/mL | MIC [18]: 0.25 µg/mL (≈ 0.282 µM) | minimal effective concentration (Rhino viruses): 2000 µg/mL | MIC [19]: ≤ 0.03 µg/mL | MIC [20]: 0.125 µg/mL (≈ 0.141 µM) | MIC [21]: 8 µg/mL (≈ 9.04 µM) | MIC (Bacteroides fragilis 111): 8 µg/mL (≈ 9.04 µM) | MIC (Peptococcus prevoti 1281): 0.125 µg/mL (≈ 0.141 µM) | MIC [22]: 2 µg/mL (≈ 2.26 µM) | MIC [23]: 0.5 µg/mL (≈ 0.565 µM) | MIC [24]: 8 µg/mL (≈ 9.04 µM) | MIC [25]: 4 µg/mL (≈ 4.52 µM) | MIC [26]: 0.5 µg/mL (≈ 0.565 µM) | MIC [27]: 128 µg/mL (≈ 145 µM) | MIC [28]: 1 µg/mL (≈ 1.13 µM) | MIC [29]: 0.25 µg/mL (≈ 0.282 µM) | MIC [30]: 8 µg/mL (≈ 9.04 µM) | MIC [31]: 0.5 µg/mL (≈ 0.565 µM) | MIC [32]: 2 µg/mL (≈ 2.26 µM) | MIC [33]: 0.25 µg/mL (≈ 0.282 µM) | MIC [34]: 8 µg/mL (≈ 9.04 µM) | minimal effective concentration (HSV II): 2000 µg/mL | Solubility (Solubility; in water): Insoluble | Solubility (Solubility; lower alcohols such as methanol, acetone, ethyl acetate, chloroform, diethyl ether, benzene, toluene, warm hexane): soluble | level in feed (as low as) that caused a reduction in the number of lesions (Eimeria acervulina): 100 ppm | minimal effective concentration (HSV I): 2000 µg/mL | minimal effective concentration (Pseudorabies virus): < 0.078 µg/mL | minimal effective concentration (Great Lakes influenza): 2000 µg/mL | MIC [35]: 0.5 µg/mL (≈ 0.565 µM) | minimal effective concentration (Vaccina): 2000 µg/mL | minimal effective concentration (Para influenza): 2000 µg/mL

CC[C@H](C)[C@H](N)C1=N[C@H](C(=O)N[C@@H](CC(C)C)C(=O)N[C@H](CCC(=O)O)C(=O)N[C@H](C(=O)N[C@H]2CCCCNC(=O)[C@H](CC(N)=O)NC(=O)[C@@H](CC(=O)O)NC(=O)[C@H](Cc3cnc[nH]3)NC(=O)[C@@H](Cc3ccccc3)NC(=O)[C@H]([C@@H](C)CC)NC(=O)[C@@H](CCCN)NC2=O)[C@@H](C)CC)CS1 [bacitracin] ({Ileψ(thiazoline)Cys}-L[dE]IK[dOrn]I[dF]H[dD]N; lactam 4-C)
Resistance of culture to antibiotic (Culture A80789; disc 10 units): sensitive

CC(=O)OCC1=C(C(=O)O)N2C(=O)[C@@H](NC(=O)Cc3cccs3)[C@H]2SC1 [cephalothin]
Resistance of culture to antibiotic (Culture A80789; disc 30 mcg): sensitive

CCC[C@@H]1C[C@@H](C(=O)N[C@@H]([C@H]2O[C@H](SC)[C@H](O)[C@@H](O)[C@H]2O)[C@@H](C)O)N(C)C1 [lincomycin]
Resistance of culture to antibiotic (Culture A80789; disc 2 mcg): resistant

CO[C@H]1C[C@H](O[C@H]2[C@H](C)[C@@H](O[C@@H]3O[C@H](C)C[C@H](N(C)C)[C@H]3O)[C@@H](C)C[C@@]3(CO3)C(=O)[C@H](C)[C@@H](O)[C@@H](C)[C@@H](C)OC(=O)[C@@H]2C)O[C@@H](C)[C@@H]1O [oleandomycin]
Resistance of culture to antibiotic (Culture A80789; disc 15 mcg): sensitive

CC1(C)S[C@@H]2[C@H](NC(=O)Cc3ccccc3)C(=O)N2[C@H]1C(=O)O [penicillin G]
Resistance of culture to antibiotic (Culture A80789; disc 10 units): resistant
